Data on 1 compound can be found in paper PMC6005341, “Identification of “sarsasapogenin-aglyconed” timosaponins as novel Aβ-lowering modulators of amyloid precursor protein processing” (Chemical Science, 2016).

This assay has as its system γ-secretase-mediated cleavage of Notch1. Kind of assay: Notch cleavage by γ-secretase in N2A-APPswe cells transfected with NotchΔE (immunoblot). The conditions noted are these: 18 h. It is filed as cell-based. How it is done:
rabbit antibody (Millipore). The immunoreactivities were detected using enhanced chemiluminescence reagents (GE Health care).
For examination of notch cleavage by γ-secretase, N2A-APPswe cells were transfected with myc-tagged NotchΔE construct (pSC2 EMV-6MT, provided by Prof. Raphael Kopan, Washington University, St. Louis, MO) using Fugene HD (Roche). Cells were then treated with timosaponins for 18 h and the expression of NotchΔE and NICD were examined by immunoblot analysis using myc-tagged antibodies.
Aβ ELISA: Aβ concentrations in conditioned medium were assayed using ELISA kits for human Aβ40, human Aβ42 (ultrasensitive) (Invitrogen), human Aβ38 (MyBioSource) (in N2A-APPswe cells) or Wako High Sensitive Aβx-42 ELISA kit (in Rat primary cortical neuron culture). The viability of the N2A-APPswe and Primary cortical neurons were determined by MTT and LDH release assays, respectively. No significant effect of viability of the neuron […]
β-Secretase assays: Confluent N2A-APPswe cells were harvested and homogenized with 50 mM MES, pH5.5. […] The β-secretase activities were assayed by adding 10 µM fluorogenic β-secretase substrate (Millipore) to the reaction mixtures and the fluorescence (excitation, 380; emission, 460) were measured. β-Secretase assays were also performed using purified BACE1 (Millipore) at 100 ng in a buffer containing 50 mM MES, pH 5.5. […]
(In general: Immunoblotting shows a protein as a band on a membrane.)

As to `C[C@H](NC(=O)Cc1cc(F)cc(F)c1)C(=O)N[C@H](C(=O)OC(C)(C)C)c1ccccc1` [DAPT], the “production of NICD” value is on record as “completely blocked”.
